The structures appear in SMILES notation. Converted amounts (≈) assume the structure as drawn.

The subject of one data set is ECa-109 cell line. Nature of the data set: Antiproliferative activity against human Eca-109 cells measured after 72 hrs by MTT assay. It counts as functional, cell-based. Conditions: ECa-109, 72 h.
Usually IC50 stands for the point on the concentration scale where inhibition reaches its midpoint. Higher therefore signals a need for much substance. `C[C@H]1CCC/C=C/[C@@H]2C[C@H](O)C[C@H]2[C@H](O)/C=C/C(=O)O1` [BREFELDIN A] registered an IC50 of 140 nM. This lies in the sub-micromolar range.
In turn, `C[C@H]1CCC/C=C/[C@@H]2C[C@H](OC(=O)/C=C/c3cccc(Cl)c3)C[C@H]2[C@H](O)/C=C/C(=O)O1` displayed an IC50 of 1450 nM. This IC50 is about 10-fold higher than that of the molecule before.
Same read-out and setting: the result for `C[C@H]1CCC/C=C/[C@@H]2C[C@H](OC(=O)/C=C/c3cccc(F)c3)C[C@H]2[C@H](O)/C=C/C(=O)O1` reads 2140 nM; that for `C[C@H]1CCC/C=C/[C@@H]2C[C@H](O)C[C@H]2[C@H](OC(=O)/C=C/c2ccccc2F)/C=C/C(=O)O1`, 1660 nM.
`Cc1ccc(/C=C/C(=O)O[C@@H]2C[C@H]3[C@H](O)/C=C/C(=O)O[C@@H](C)CCC/C=C/[C@@H]3C2)cc1` showed a concentration for half-maximal inhibition (IC50) of 12500 nM.

The test system of another data set is Bel-7402. The data set can be described thus: Antiproliferative activity against human Bel-7402 cells measured after 72 hrs by MTT assay. It is filed as functional, cell-based. Conditions: Bel-7402, 72 h. In general terms: Tetrazolium dyes change colour on reduction, which living cells bring about.
`C[C@H]1CCC/C=C/[C@@H]2C[C@H](O)C[C@H]2[C@H](O)/C=C/C(=O)O1` [BREFELDIN A] displayed an IC50 of 170 nM.
`C[C@H]1CCC/C=C/[C@@H]2C[C@H](OC(=O)/C=C/c3cccc(Cl)c3)C[C@H]2[C@H](O)/C=C/C(=O)O1`: the IC50 was found to be 720 nM.
Same read-out and setting: the result for `C[C@H]1CCC/C=C/[C@@H]2C[C@H](OC(=O)/C=C/c3cccc(F)c3)C[C@H]2[C@H](O)/C=C/C(=O)O1` reads 920 nM; that for `C[C@H]1CCC/C=C/[C@@H]2C[C@H](O)C[C@H]2[C@H](OC(=O)/C=C/c2ccccc2F)/C=C/C(=O)O1`, 1060 nM.
On the same count and under the same terms, with `Cc1ccc(/C=C/C(=O)O[C@@H]2C[C@H]3[C@H](O)/C=C/C(=O)O[C@@H](C)CCC/C=C/[C@@H]3C2)cc1` the figure was 2140 nM.

A further data set relates to PANC-1. The data set can be described thus: Antiproliferative activity against human PANC-1 cells measured after 72 hrs by MTT assay. It is filed as functional, cell-based. Conditions: PANC-1, 72 h.
For the molecule `C[C@H]1CCC/C=C/[C@@H]2C[C@H](O)C[C@H]2[C@H](O)/C=C/C(=O)O1` [BREFELDIN A], the IC50 turned out to be 80 nM. This counts as double-digit nanomolar.
Same read-out and setting: with `C[C@H]1CCC/C=C/[C@@H]2C[C@H](OC(=O)/C=C/c3cccc(Cl)c3)C[C@H]2[C@H](O)/C=C/C(=O)O1` the figure was 660 nM; with `C[C@H]1CCC/C=C/[C@@H]2C[C@H](OC(=O)/C=C/c3cccc(F)c3)C[C@H]2[C@H](O)/C=C/C(=O)O1`, 610 nM.
Same read-out and setting: the result for `C[C@H]1CCC/C=C/[C@@H]2C[C@H](O)C[C@H]2[C@H](OC(=O)/C=C/c2ccccc2F)/C=C/C(=O)O1` reads 1000 nM.
On the same count and under the same terms, with `Cc1ccc(/C=C/C(=O)O[C@@H]2C[C@H]3[C@H](O)/C=C/C(=O)O[C@@H](C)CCC/C=C/[C@@H]3C2)cc1` the figure was 1350 nM.

Tested on in another data set: not listed separately
The data set can be described thus: Cytotoxicity against human L02 cells measured after 72 hrs by MTT assay. It is filed as toxicity, cell-based.
Conditions: not given
Regarding `C[C@H]1CCC/C=C/[C@@H]2C[C@H](O)C[C@H]2[C@H](O)/C=C/C(=O)O1` [BREFELDIN A], the half-maximal inhibitory concentration (IC50) at 72 h turned out to be 100 nM.

Tested on in the next data set: not listed separately
The data set can be described thus: Selectivity index, ratio of IC50 for human L02 cells to IC50 for human HepG2 cells. It is filed as toxicity. Conditions: L02 cells and HepG2 cells, read-out: Ratio IC50.
As to `C[C@H]1CCC/C=C/[C@@H]2C[C@H](O)C[C@H]2[C@H](O)/C=C/C(=O)O1` [BREFELDIN A], the selectivity ratio is 0.56.

A further data set deals with HepG2. The data set can be described thus: Antiproliferative activity against human HepG2 cells measured after 72 hrs by MTT assay. Conditions: HepG2, 72 h. It is filed as functional, cell-based.
In turn, `C[C@H]1CCC/C=C/[C@@H]2C[C@H](O)C[C@H]2[C@H](O)/C=C/C(=O)O1` [BREFELDIN A] had an IC50 of 180 nM.
On the same count and under the same terms, with `C[C@H]1CCC/C=C/[C@@H]2C[C@H](OC(=O)/C=C/c3cccc(Cl)c3)C[C@H]2[C@H](O)/C=C/C(=O)O1` the figure was 890 nM; with `C[C@H]1CCC/C=C/[C@@H]2C[C@H](OC(=O)/C=C/c3cccc(F)c3)C[C@H]2[C@H](O)/C=C/C(=O)O1`, 450 nM; with `C[C@H]1CCC/C=C/[C@@H]2C[C@H](O)C[C@H]2[C@H](OC(=O)/C=C/c2ccccc2F)/C=C/C(=O)O1`, 1020 nM.
Still for that read-out and setting: with `Cc1ccc(/C=C/C(=O)O[C@@H]2C[C@H]3[C@H](O)/C=C/C(=O)O[C@@H](C)CCC/C=C/[C@@H]3C2)cc1` the figure was 2870 nM.

The next data set has as its system HepG2. Nature of the data set: Antiproliferative activity against human HepG2 cells assessed as cell growth inhibition at 1 uM measured after 72 hrs by MTT assay relative to control. Conditions: read-out: GI. It is filed as functional.
With `C[C@H]1CCC/C=C/[C@@H]2C[C@H](O)C[C@H]2[C@H](O)/C=C/C(=O)O1` [BREFELDIN A], the inhibition of growth at 1 µM was determined as 94.4%.
The same measure, in the same setting: the result for `C[C@H]1CCC/C=C/[C@@H]2C[C@H](OC(=O)/C=C/c3cccc(Cl)c3)C[C@H]2[C@H](O)/C=C/C(=O)O1` reads 68.1%; that for `C[C@H]1CCC/C=C/[C@@H]2C[C@H](OC(=O)/C=C/c3cccc(F)c3)C[C@H]2[C@H](O)/C=C/C(=O)O1`, 71.1%.
The same measure, in the same setting: the result for `C[C@H]1CCC/C=C/[C@@H]2C[C@H](O)C[C@H]2[C@H](OC(=O)/C=C/c2ccccc2F)/C=C/C(=O)O1` reads 58.3%; that for `Cc1ccc(/C=C/C(=O)O[C@@H]2C[C@H]3[C@H](O)/C=C/C(=O)O[C@@H](C)CCC/C=C/[C@@H]3C2)cc1`, 30.8%.

Tested on in a further data set: not listed separately
Nature of the data set: Solubility of the compound in 5% DMSO and 10% Solutol HS-15 saline solution. It is filed as physicochemical.
Conditions: not given
The term solubility denotes the concentration that dissolves in the medium under given conditions. As for `C[C@H]1CCC/C=C/[C@@H]2C[C@H](O)C[C@H]2[C@H](O)/C=C/C(=O)O1` [BREFELDIN A], the concentration in solution (solubility) came to 1000 µg/mL (≈ 3.57 mM).

The next data set concerns HeLa. The data set can be described thus: Antiproliferative activity against human HeLa cells measured after 72 hrs by MTT assay.
Conditions: not given
It is filed as functional, cell-based.
`C[C@H]1CCC/C=C/[C@@H]2C[C@H](O)C[C@H]2[C@H](O)/C=C/C(=O)O1` [BREFELDIN A] had a 50% inhibitory concentration (IC50) of 70 nM.
On the same count and under the same terms, with `C[C@H]1CCC/C=C/[C@@H]2C[C@H](OC(=O)/C=C/c3cccc(Cl)c3)C[C@H]2[C@H](O)/C=C/C(=O)O1` the figure was 1100 nM.
On the same count and under the same terms, with `C[C@H]1CCC/C=C/[C@@H]2C[C@H](OC(=O)/C=C/c3cccc(F)c3)C[C@H]2[C@H](O)/C=C/C(=O)O1` the figure was 2740 nM; with `C[C@H]1CCC/C=C/[C@@H]2C[C@H](O)C[C@H]2[C@H](OC(=O)/C=C/c2ccccc2F)/C=C/C(=O)O1`, 1050 nM.
Same read-out and setting: with `Cc1ccc(/C=C/C(=O)O[C@@H]2C[C@H]3[C@H](O)/C=C/C(=O)O[C@@H](C)CCC/C=C/[C@@H]3C2)cc1` the figure was 1910 nM.

For the origin of these results see ChEMBL document CHEMBL5113500, “New brefeldin A-cinnamic acid ester derivatives as potential antitumor agents: Design, synthesis and biological evaluation” (Eur J Med Chem, 2022).
